Data: ChEMBL document CHEMBL1201862, “PubChem BioAssay data set” (2004)
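Assay format: 96-well plates, 48-hour exposure. GI50 = concentration required for 50% inhibition of growth.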 Calls of active or inactive are those of the source. Rule as the data show it: active = GI50 up to about 1.1 µM and inactive = higher.

Experiments:
Test in all cases: growth of human tumour cells (NCI), 48 h
SF-295 = tested on: SF-295
SNB-19 = tested on: SNB-19
SR = tested on: SR
RXF 393 = tested on: RXF 393
SW-620 = tested on: SW-620
DU-145 = tested on: DU-145
RPMI-8226 = tested on: RPMI-8226
OVCAR-3 = tested on: OVCAR-3
OVCAR-8 = tested on: OVCAR-8
U-251 = tested on: U-251
SN12C = tested on: SN12C
M14 = tested on: M14
HCC 2998 = tested on: HCC 2998
LOX IMVI = tested on: LOX IMVI
OVCAR-4 = tested on: OVCAR-4
MDA-MB-231 = tested on: MDA-MB-231
HCT-116 = tested on: HCT-116
CAKI-1 = tested on: CAKI-1

Measured: GI50

O=C1CC(C(OCc2ccccc2)C(OCc2ccccc2)C(OCc2ccccc2)C(COCc2ccccc2)OCc2ccccc2)CC(=O)N1 (stereo not drawn)
inactive: SF-295 > 100 µM | SNB-19 > 100 µM | SR > 100 µM | RXF 393 6.52 µM | SW-620 > 100 µM | DU-145 > 100 µM | RPMI-8226 > 100 µM | OVCAR-3 > 100 µM | OVCAR-8 > 100 µM | U-251 79.8 µM | SN12C > 100 µM | M14 > 100 µM | HCC 2998 > 100 µM | LOX IMVI > 100 µM | OVCAR-4 > 100 µM

C(=N\N=C1NCCCN1)/c1ccc2ccccc2c1
inactive: SF-295 11.4 µM | SNB-19 14.7 µM | RXF 393 15.5 µM | SW-620 12.4 µM | DU-145 11 µM | RPMI-8226 4.7 µM | OVCAR-3 14.7 µM | OVCAR-8 14.7 µM | U-251 6.53 µM | MDA-MB-231 6.32 µM | SN12C 12.4 µM | M14 7.98 µM | HCT-116 10.4 µM | HCC 2998 2.64 µM | LOX IMVI 9.14 µM | OVCAR-4 19.3 µM

COC(=O)C1C2C=CC(C2)N1S(=O)(=O)c1ccccc1 (stereo not drawn)
inactive: SF-295 > 100 µM | SNB-19 > 100 µM | RXF 393 > 100 µM | SW-620 > 100 µM | DU-145 > 100 µM | RPMI-8226 > 100 µM | OVCAR-3 > 100 µM | CAKI-1 > 100 µM | OVCAR-8 > 100 µM | U-251 > 100 µM | MDA-MB-231 > 100 µM | SN12C > 100 µM | M14 > 100 µM | HCT-116 > 100 µM | OVCAR-4 > 100 µM

COc1ccc(/C=N/Nc2nnc3c(n2)c2ccccc2c2nn(-c4ccccc4Cl)nc23)cc1
inactive: SF-295 > 100 µM | SNB-19 > 100 µM | RXF 393 > 100 µM | SW-620 > 100 µM | DU-145 > 100 µM | RPMI-8226 > 100 µM | OVCAR-3 > 100 µM | CAKI-1 > 100 µM | OVCAR-8 > 100 µM | U-251 > 100 µM | MDA-MB-231 > 100 µM | SN12C > 100 µM | M14 > 100 µM | HCT-116 > 100 µM | LOX IMVI > 100 µM | OVCAR-4 > 100 µM

C[N+](C)(C)CC(=O)N/N=C(/Cc1cc(=O)oc2cc(O)ccc12)C(=O)Nc1ccc(Cl)cc1
inactive: SF-295 > 100 µM | SNB-19 > 100 µM | SR > 100 µM | RXF 393 > 100 µM | SW-620 > 100 µM | RPMI-8226 > 100 µM | OVCAR-3 > 100 µM | CAKI-1 > 100 µM | OVCAR-8 > 100 µM | SN12C > 100 µM | M14 > 100 µM | HCT-116 > 100 µM | HCC 2998 > 100 µM | OVCAR-4 > 100 µM

COc1ccc(/C=C2/S/C(=N\c3ccccc3)N(NC(=O)Cc3ccccc3)C2=O)c(OC)c1
inactive: SF-295 > 100 µM | SNB-19 > 100 µM | RXF 393 > 100 µM | SW-620 > 100 µM | DU-145 > 100 µM | RPMI-8226 > 100 µM | OVCAR-3 > 100 µM | OVCAR-8 > 100 µM | U-251 > 100 µM | MDA-MB-231 69 µM | SN12C > 100 µM | M14 > 100 µM | HCT-116 > 100 µM | HCC 2998 82.6 µM | OVCAR-4 > 100 µM

CO/N=C(\C(=O)[N-]n1cn[n+](CC(=O)OC(C)(C)C)c1)c1csc(NC(c2ccccc2)(c2ccccc2)c2ccccc2)n1
inactive: SF-295 > 10 µM | SNB-19 > 10 µM | SR > 10 µM | RXF 393 > 10 µM | SW-620 > 10 µM | DU-145 > 10 µM | RPMI-8226 > 10 µM | OVCAR-3 > 10 µM | CAKI-1 > 10 µM | OVCAR-8 > 10 µM | U-251 > 10 µM | SN12C > 10 µM | M14 > 10 µM | HCT-116 > 10 µM | HCC 2998 > 10 µM | LOX IMVI > 10 µM | OVCAR-4 > 10 µM

O=C(/C=C1\Nc2ccccc2N=C1NC12CC3CC(CC(C3)C1)C2)c1ccc(Br)cc1
inactive: SF-295 > 10 µM | SNB-19 > 10 µM | RXF 393 > 10 µM | SW-620 > 10 µM | DU-145 > 10 µM | RPMI-8226 > 10 µM | OVCAR-3 > 10 µM | CAKI-1 > 10 µM | OVCAR-8 > 10 µM | U-251 > 10 µM | MDA-MB-231 > 10 µM | SN12C > 10 µM | M14 > 10 µM | HCT-116 > 10 µM | HCC 2998 > 10 µM | LOX IMVI > 10 µM | OVCAR-4 > 10 µM

Nc1cc(N2CCOCC2)nc(=O)n1-c1ccc(Cl)cc1
inactive: SF-295 > 100 µM | SNB-19 > 100 µM | SR > 100 µM | SW-620 > 100 µM | DU-145 > 100 µM | RPMI-8226 > 100 µM | OVCAR-3 > 100 µM | CAKI-1 > 100 µM | OVCAR-8 > 100 µM | U-251 > 100 µM | SN12C > 100 µM | M14 > 100 µM | HCT-116 > 100 µM | HCC 2998 > 100 µM | LOX IMVI > 100 µM

CC(=O)Nc1ccc2cc(C#N)c(=O)[nH]c2n1
inactive: SF-295 > 100 µM | SNB-19 > 100 µM | RXF 393 > 100 µM | SW-620 > 100 µM | RPMI-8226 > 100 µM | OVCAR-3 > 100 µM | CAKI-1 > 100 µM | OVCAR-8 > 100 µM | U-251 81.3 µM | MDA-MB-231 > 100 µM | SN12C > 100 µM | M14 > 100 µM | HCT-116 > 100 µM | HCC 2998 > 100 µM | LOX IMVI > 100 µM | OVCAR-4 > 100 µM

CCCC/C=C/C/C=C/CCCCCCCCC(=O)OCC1CCCN2CCCCC12 (stereo not drawn)
inactive: SF-295 > 100 µM | SNB-19 > 100 µM | RXF 393 > 100 µM | SW-620 > 100 µM | DU-145 > 100 µM | RPMI-8226 > 100 µM | OVCAR-3 > 100 µM | CAKI-1 31 µM | OVCAR-8 > 100 µM | U-251 > 100 µM | MDA-MB-231 > 100 µM | SN12C > 100 µM | M14 > 100 µM | HCT-116 > 100 µM | HCC 2998 > 100 µM | LOX IMVI 76.9 µM | OVCAR-4 79.8 µM

O=C1NC(Nc2cccc(Cl)c2)=N/C1=C\c1ccc(Cl)c(Cl)c1
inactive: SF-295 4.05 µM | SNB-19 7.74 µM | SR 2.82 µM | RXF 393 3.21 µM | SW-620 3.68 µM | DU-145 7.52 µM | RPMI-8226 3.99 µM | OVCAR-3 5.14 µM | CAKI-1 4.6 µM | OVCAR-8 4.34 µM | U-251 4.02 µM | SN12C 2.54 µM | M14 4.42 µM | HCT-116 3.94 µM | HCC 2998 2.28 µM | LOX IMVI 2.14 µM | OVCAR-4 1.9 µM

CC1(C)CS(=O)(=O)CC(C)(C)C(=N/N)/C1=N\N
inactive: SF-295 > 100 µM | SNB-19 > 100 µM | SR > 100 µM | SW-620 > 100 µM | DU-145 > 100 µM | OVCAR-3 > 100 µM | CAKI-1 > 100 µM | OVCAR-8 > 100 µM | U-251 > 100 µM | SN12C > 100 µM | M14 > 100 µM | HCT-116 > 100 µM | HCC 2998 > 100 µM | LOX IMVI > 100 µM | OVCAR-4 > 100 µM

Nc1ncnc2c1ncn2C(=O)NC12CC3CC(CC(C3)C1)C2
inactive: SF-295 > 100 µM | SNB-19 > 100 µM | RXF 393 > 100 µM | SW-620 > 100 µM | DU-145 > 100 µM | RPMI-8226 > 100 µM | OVCAR-3 > 100 µM | CAKI-1 > 100 µM | OVCAR-8 > 100 µM | U-251 > 100 µM | MDA-MB-231 > 100 µM | SN12C > 100 µM | M14 > 100 µM | HCT-116 > 100 µM | HCC 2998 > 100 µM | LOX IMVI > 100 µM | OVCAR-4 > 100 µM

O=C1Oc2ccccc2C(=O)/C1=C/N1C(=O)CNC1=S
inactive: SF-295 > 100 µM | SNB-19 > 100 µM | RXF 393 26.9 µM | SW-620 > 100 µM | DU-145 > 100 µM | RPMI-8226 > 100 µM | OVCAR-3 > 100 µM | CAKI-1 > 100 µM | OVCAR-8 > 100 µM | U-251 > 100 µM | MDA-MB-231 > 100 µM | SN12C > 100 µM | M14 > 100 µM | HCT-116 > 100 µM | HCC 2998 > 100 µM | LOX IMVI > 100 µM | OVCAR-4 > 100 µM

C=C1C(=O)O[C@@H]2C(=O)[C@@H](C)CCC/C(C)=C/CC[C@@]3(C)O[C@@H]3C[C@@H]12
inactive: SF-295 > 100 µM | SNB-19 > 100 µM | RXF 393 3.75 µM | SW-620 20.8 µM | DU-145 75.2 µM | RPMI-8226 18.6 µM | OVCAR-3 46.3 µM | CAKI-1 19.9 µM | OVCAR-8 68.5 µM | U-251 98.9 µM | MDA-MB-231 53.8 µM | SN12C 40.3 µM | M14 54.2 µM | HCT-116 29.4 µM | HCC 2998 > 100 µM | LOX IMVI 18.9 µM | OVCAR-4 79.4 µM

O=S1(=O)OC(c2ccc(O)cc2)(c2ccc(O)cc2)c2ccccc21 [PHENOLSULFONPHTHALEIN]
inactive: SF-295 > 100 µM | SNB-19 > 100 µM | RXF 393 > 100 µM | SW-620 > 100 µM | DU-145 > 100 µM | RPMI-8226 > 100 µM | OVCAR-3 > 100 µM | CAKI-1 > 100 µM | OVCAR-8 > 100 µM | U-251 > 100 µM | MDA-MB-231 > 100 µM | SN12C > 100 µM | M14 > 100 µM | HCT-116 > 100 µM | HCC 2998 > 100 µM | LOX IMVI > 100 µM | OVCAR-4 > 100 µM
